How the values were obtained:
[1] = target: TR beta-LBD (thyroid hormone receptor beta) (Homo sapiens (Human), UniProt P10828); test: LanthaScreen TR-FRET Thyroid Receptor beta Coactivator Assay (agonist screening); format: biochemical; details: for THRβ-Selectivity: THR beta over THR alpha, derived from T3-selectivity normalized data; for EC50: TR-FRET coactivator assay, TR beta-LBD 1.0 nM, 2 hour incubation, average of duplicate runs, read-out: EC50 THRβ-FRET
Procedure: (§1) Example B1: Time-Resolved Fluorescence Resonance Energy Transfer (TR-FRET) Assay for Thyroid Hormone Receptor Agonist Screening
(§2) LanthaScreen™ TR-FRET Thyroid Receptor alpha Coactivator Assay kit (ThermoFisher) and LanthaScreen™ TR-FRET Thyroid Receptor beta Coactivator Assay kit (ThermoFisher) were used for agonist compound screening. Compounds in DMSO were diluted using ECHO Liquid Handler (Labcyte Inc.) into 384 plates in 10-point 3-fold series in duplicate (5 micro M final top concentration). Buffer C (ThermoFisher) was added to each well before the 4× mixture of fluorescein-SCR2-2 coactivator (200 nM final concentration), Terbium-labeled anti-GST antibody (2 nM final concentration), and TR alpha-LBD (0.4 nM final concentration) or TR beta-LBD (1.0 nM final concentration) was added. After 2 hour incubation at room temperature in dark, the TR-FRET signal was measured on an EnVision plate reader (PerkinElmer) with excitation at 340 nm and dual emission readout at 495 and 520 nm with the delay time of 100 micro second and the integration time of 200 micro second. The ratio of emission signal at 520 and at 495 was used to calculate EC50 using GraphPad Prism (GraphPad Software). In every batch of compound screening, T3 (L-3,3′,5-Triiodothyronine sodium salt, >95%) (Calbiochem) was used as reference compound. The EC50 of T3 measured were within 3-fold of the reference value provided by the assay kit manufacturer (ThermoFisher Scientific). The Z′ factors measured in every batch of screening using T3 as high percent effect (HPE) control and 0.5% DMSO as zero percent effect (ZPE) control were in the range of 0.5 to 0.8. Compounds' THR-beta selectivity values are derived from T3-selectivity normalized data.

[2] = target: TR alpha-LBD (thyroid hormone receptor alpha) (Homo sapiens (Human), UniProt P10827); test: LanthaScreen TR-FRET Thyroid Receptor alpha Coactivator Assay (agonist screening); format: biochemical; details: TR alpha-LBD 0.4 nM, 2 hour incubation, average of duplicate runs, read-out: EC50 THRα-FRET
Procedure: as §1, §2

Chain of TR alpha-LBD (thyroid hormone receptor alpha) (P10827 other isoform, or with tags, fused parts or gaps del 1-162, other chains not shown): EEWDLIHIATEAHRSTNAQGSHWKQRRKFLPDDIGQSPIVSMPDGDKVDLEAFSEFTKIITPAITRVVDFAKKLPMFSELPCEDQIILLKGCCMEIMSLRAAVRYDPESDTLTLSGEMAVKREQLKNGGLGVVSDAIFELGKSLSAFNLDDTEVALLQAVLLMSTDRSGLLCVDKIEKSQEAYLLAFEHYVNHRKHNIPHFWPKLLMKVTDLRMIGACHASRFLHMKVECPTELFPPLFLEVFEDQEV
Chain of TR beta-LBD (thyroid hormone receptor beta) (P10828 217-461): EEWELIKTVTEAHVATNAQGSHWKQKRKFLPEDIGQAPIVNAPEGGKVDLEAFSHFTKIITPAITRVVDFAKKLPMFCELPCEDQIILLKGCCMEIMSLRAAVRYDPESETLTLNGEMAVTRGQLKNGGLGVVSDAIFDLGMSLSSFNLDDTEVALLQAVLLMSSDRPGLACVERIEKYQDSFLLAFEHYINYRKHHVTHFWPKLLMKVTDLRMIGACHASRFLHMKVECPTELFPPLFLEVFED

Row | SMILES | THRβ-Selectivity [1] | EC50 [1] [nM] | EC50 [2] [nM]
1 | CC(C)c1cc(Oc2c(Cl)cc(NC(C)c3noc(=O)[nH]3)cc2Cl)nn(C)c1=O (single isomer, unassigned) [Example 3-P1, 3-(1-((3,5-dichloro-4-((5-isopropyl-1-methyl-6-oxo-1,6-dihydropyridazin-3-yl)oxy)phenyl)amino)ethyl)-1,2,4-oxadiazol-5(4H)-one] | 1.0 | 277 | 75.9
2 | CC(C)c1cc(Oc2c(Cl)cc(NC(C)c3noc(=O)[nH]3)cc2Cl)nn(C)c1=O (single isomer, unassigned) [Example 3-P2, 3-(1-((3,5-dichloro-4-((5-isopropyl-1-methyl-6-oxo-1,6-dihydropyridazin-3-yl)oxy)phenyl)amino)ethyl)-1,2,4-oxadiazol-5(4H)-one] | 4.2 | 732 | 817
3 | CC(C)c1cc(Oc2c(Cl)cc(NCc3noc(=O)[nH]3)cc2Cl)nn(C)c1=O [Example 1, 3-(((3,5-dichloro-4-((5-isopropyl-1-methyl-6-oxo-1,6-dihydropyridazin-3-yl)oxy)phenyl)amino)methyl)-1,2,4-oxadiazol-5(4H)-one] | 17.2 | 7.6 | 49.5
4 | CC(C)c1cc(Oc2c(Cl)cc(N(C)Cc3noc(=O)[nH]3)cc2Cl)nn(C)c1=O [Example 2, 3-(((3,5-dichloro-4-((5-isopropyl-1-methyl-6-oxo-1,6-dihydropyridazin-3-yl)oxy)phenyl)(methyl)amino)methyl)-1,2,4-oxadiazol-5(4H)-one] |  | > 5000 | > 5000
5 | CC(C)c1cc(Oc2c(Cl)cc(NC(=O)c3noc(=O)[nH]3)cc2Cl)nn(C)c1=O [Example 4, N-(3,5-dichloro-4-((5-isopropyl-1-methyl-6-oxo-1,6-dihydropyridazin-3-yl)oxy)phenyl)-5-oxo-4,5-dihydro-1,2,4-oxadiazole-3-carboxamide] | 31.7 | 27.1 | 314
6 | CC(C)c1cc(Oc2c(Cl)cc(NCc3noc(=O)[nH]3)cc2Cl)n[nH]c1=O [Example 5, 3-(((3,5-dichloro-4-((5-isopropyl-6-oxo-1,6-dihydropyridazin-3-yl)oxy)phenyl)amino)methyl)-1,2,4-oxadiazol-5(4H)-one] | 27.8 | 74.2 | 469
7 | CC(C)c1cc(Oc2c(Cl)cc(OCc3noc(=O)[nH]3)cc2Cl)nn(C)c1=O [Example 6, 3-((3,5-dichloro-4-((5-isopropyl-1-methyl-6-oxo-1,6-dihydropyridazin-3-yl)oxy)phenoxy)methyl)-1,2,4-oxadiazol-5(4H)-one] | 3.6 | 58.1 | 78
8 | CC(C)c1cc(Oc2c(Cl)cc(-c3cc(=O)[nH]o3)cc2Cl)nn(C)c1=O [Example 7, 5-(3,5-dichloro-4-((5-isopropyl-1-methyl-6-oxo-1,6-dihydropyridazin-3-yl)oxy)phenyl)isoxazol-3(2H)-one] | 13.1 | 60.9 | 473
9 | CC(C)c1cc(Oc2c(Cl)cc(-c3cc(=O)[nH]o3)cc2Cl)n[nH]c1=O [Example 8, 5-(3,5-dichloro-4-((5-isopropyl-6-oxo-1,6-dihydropyridazin-3-yl)oxy)phenyl)isoxazol-3(2H)-one] | 7 | 896 | 2300
10 | CC(C)c1cc(Oc2c(Cl)cc(-c3noc(=O)[nH]3)cc2Cl)n[nH]c1=O [Example 9, 3-[3,5-dichloro-4-[(5-isopropyl-6-oxo-1H-pyridazin-3-yl)oxy]phenyl]-4H-1,2,4-oxadiazol-5-one] | 0.7 | 290 | 126
11 | Cc1c(NC(=O)c2noc(=O)[nH]2)cc(Cl)c(Oc2cc(C(C)C)c(=O)n(C)n2)c1Cl [Example 11, N-(3,5-dichloro-4-((5-isopropyl-1-methyl-6-oxo-1,6-dihydropyridazin-3-yl)oxy)-2-methylphenyl)-5-oxo-4,5-dihydro-1,2,4-oxadiazole-3-carboxamide] | 4.8 | 116 | 192
12 | Cc1c(NCc2noc(=O)[nH]2)cc(Cl)c(Oc2cc(C(C)C)c(=O)n(C)n2)c1Cl [Example 12, 3-(((3,5-dichloro-4-((5-isopropyl-1-methyl-6-oxo-1,6-dihydropyridazin-3-yl)oxy)-2-methylphenyl)amino)methyl)-1,2,4-oxadiazol-5(4H)-one] | 6.2 | 71.2 | 152
13 | CC(C)c1cc(Cc2c(Cl)cc(NC(=O)c3noc(=O)[nH]3)cc2Cl)n[nH]c1=O [Example 13, N-(3,5-dichloro-4-((5-isopropyl-6-oxo-1,6-dihydropyridazin-3-yl)methyl)phenyl)-5-oxo-4,5-dihydro-1,2,4-oxadiazole-3-carboxamide] | 86.5 | 53.6 | 1630
14 | CC(C)c1cc(Cc2c(Cl)cc(NC(=O)c3noc(=O)[nH]3)cc2Cl)nn(C)c1=O [Example 14, N-(3,5-dichloro-4-((5-isopropyl-1-methyl-6-oxo-1,6-dihydropyridazin-3-yl)methyl)phenyl)-5-oxo-4,5-dihydro-1,2,4-oxadiazole-3-carboxamide] | 48 | 46.6 | 549
15 | CC(C)c1cc(Cc2c(Cl)cc(NCc3noc(=O)[nH]3)cc2Cl)n[nH]c1=O [Example 15, 3-(((3,5-dichloro-4-((5-isopropyl-6-oxo-1,6-dihydropyridazin-3-yl)methyl)phenyl)amino)methyl)-1,2,4-oxadiazol-5(4H)-one] | 11.7 | 31.5 | 102
16 | CC(C)c1cc(Cc2c(Cl)cc(NCc3noc(=O)[nH]3)cc2Cl)nn(C)c1=O [Example 16, 3-(((3,5-dichloro-4-((5-isopropyl-1-methyl-6-oxo-1,6-dihydropyridazin-3-yl)methyl)phenyl)amino)methyl)-1,2,4-oxadiazol-5(4H)-one] | 6.7 | 44.2 | 82.4
17 | CC(C)c1cc(C(=O)c2c(Cl)cc(NC(=O)c3noc(=O)[nH]3)cc2Cl)nn(C)c1=O [Example 17, N-(3,5-dichloro-4-(5-isopropyl-1-methyl-6-oxo-1,6-dihydropyridazine-3-carbonyl)phenyl)-5-oxo-4,5-dihydro-1,2,4-oxadiazole-3-carboxamide] | >7.2 | 2110 | > 5000
18 | CC(C)c1cc(C(=O)c2c(Cl)cc(NCc3noc(=O)[nH]3)cc2Cl)nn(C)c1=O [Example 18, 3-(((3,5-dichloro-4-(5-isopropyl-1-methyl-6-oxo-1,6-dihydropyridazine-3-carbonyl)phenyl)amino)methyl)-1,2,4-oxadiazol-5(4H)-one] | 6.1 | 271 | 550
19 | CC(C)c1cc(S(=O)(=O)c2c(Cl)cc(NCc3noc(=O)[nH]3)cc2Cl)nn(C)c1=O [Example 19, 3-(((3,5-dichloro-4-((5-isopropyl-1-methyl-6-oxo-1,6-dihydropyridazin-3-yl)sulfonyl)phenyl)amino)methyl)-1,2,4-oxadiazol-5(4H)-one] |  | > 5000 | 1930
20 | CC(C)c1cc(S(=O)(=O)c2c(Cl)cc(NC(=O)c3noc(=O)[nH]3)cc2Cl)nn(C)c1=O [Example 20, N-(3,5-dichloro-4-((5-isopropyl-1-methyl-6-oxo-1,6-dihydropyridazin-3-yl)sulfonyl)phenyl)-5-oxo-4,5-dihydro-1,2,4-oxadiazole-3-carboxamide] |  | > 5000 | > 5000
21 | O=C(Nc1cc(Cl)c(Cc2cc(C3CC3)c(=O)[nH]n2)c(Cl)c1)c1noc(=O)[nH]1 [Example 21, N-(3,5-dichloro-4-((5-cyclopropyl-6-oxo-1,6-dihydropyridazin-3-yl)methyl)phenyl)-5-oxo-4,5-dihydro-1,2,4-oxadiazole-3-carboxamide] | >113 | 180 | > 5000
22 | Cn1nc(Cc2c(Cl)cc(NC(=O)c3noc(=O)[nH]3)cc2Cl)cc(C2CC2)c1=O [Example 22, N-(3,5-dichloro-4-((5-cyclopropyl-1-methyl-6-oxo-1,6-dihydropyridazin-3-yl)methyl)phenyl)-5-oxo-4,5-dihydro-1,2,4-oxadiazole-3-carboxamide] | 19.5 | 181 | 898
23 | CC(C)c1cc(Oc2c(Cl)cc(NC(=O)c3noc(=O)[nH]3)cc2Cl)n[nH]c1=O [Example 23, N-(3,5-dichloro-4-((5-isopropyl-6-oxo-1,6-dihydropyridazin-3-yl)oxy)phenyl)-5-oxo-4,5-dihydro-1,2,4-oxadiazole-3-carboxamide] | 67.3 | 87.3 | 1320

Source: US10800767B2, “Thyroid hormone receptor beta agonist compounds” (Terns, Inc., priority 2018, dated 2020)
